Measurements reported in ChEMBL document CHEMBL1143757, “Synthesis and inhibitory activity of new benzimidazole derivatives against Burkitt's lymphoma promotion” (2007).

Legend:
Human gammaherpesvirus 4 [1] = assay: Inhibition of TPA-induced Epstein-Barr virus early antigen activation in Raji cells at 16 nmol relative to control; values are per cent of control
Human gammaherpesvirus 4 [2] = assay: Inhibition of TPA-induced Epstein-Barr virus early antigen activation in Raji cells at 0.32 nmol relative to control; values are per cent of control
Human gammaherpesvirus 4 [3] = assay: Inhibition of TPA-induced Epstein-Barr virus early antigen activation in Raji cells at 3.2 nmol relative to control; values are per cent of control
Human gammaherpesvirus 4 [4] = assay: Inhibition of TPA-induced Epstein-Barr virus early antigen activation in Raji cells at 32 nmol relative to control; values are per cent of control
Raji = assay: Cytotoxicity against Raji cells assessed as cell viability at 32 nmol relative to control; format: functional, Homo sapiens

SMILES: Cc1nc2cc(N3C(=O)CSC3c3cccc4ccccc34)ccc2[nH]1 (stereo not given)
- level, % of control (Human gammaherpesvirus 4 [1]): 61%
- level, % of control (Human gammaherpesvirus 4 [2]): 100%
- level, % of control (Human gammaherpesvirus 4 [3]): 85.1%
- level, % of control (Human gammaherpesvirus 4 [4]): 17.1%
- Activity (Raji): 60%

SMILES: Cc1nc2cc([N+](=O)[O-])ccc2n1Cc1ccccc1
- level, % of control (Human gammaherpesvirus 4 [1]): 62.4%
- level, % of control (Human gammaherpesvirus 4 [2]): 100%
- level, % of control (Human gammaherpesvirus 4 [3]): 87.4%
- level, % of control (Human gammaherpesvirus 4 [4]): 18.3%
- Activity (Raji): 60%

SMILES: Cc1nc2cc(N3C(=O)CSC3c3ccc4c(c3)OCO4)ccc2[nH]1 (stereo not given)
- level, % of control (Human gammaherpesvirus 4 [1]): 65%
- level, % of control (Human gammaherpesvirus 4 [2]): 100%
- level, % of control (Human gammaherpesvirus 4 [3]): 88.4%
- level, % of control (Human gammaherpesvirus 4 [4]): 21.6%
- Activity (Raji): 60%

SMILES: Cc1nc2cc(N3C(=O)CSC3c3cccs3)ccc2[nH]1 (stereo not given)
- level, % of control (Human gammaherpesvirus 4 [1]): 66.5%
- level, % of control (Human gammaherpesvirus 4 [2]): 100%
- level, % of control (Human gammaherpesvirus 4 [3]): 88.9%
- level, % of control (Human gammaherpesvirus 4 [4]): 22.1%
- Activity (Raji): 60%

SMILES: Cc1nc2cc(/N=C\c3ccc(C)o3)ccc2[nH]1
- level, % of control (Human gammaherpesvirus 4 [1]): 62%
- level, % of control (Human gammaherpesvirus 4 [2]): 100%
- level, % of control (Human gammaherpesvirus 4 [3]): 86.2%
- level, % of control (Human gammaherpesvirus 4 [4]): 18%
- Activity (Raji): 60%

SMILES: Cc1nc2cc(/N=C\c3ccc4c(c3)OCO4)ccc2[nH]1
- level, % of control (Human gammaherpesvirus 4 [1]): 60.2%
- level, % of control (Human gammaherpesvirus 4 [2]): 100%
- level, % of control (Human gammaherpesvirus 4 [3]): 85.4%
- level, % of control (Human gammaherpesvirus 4 [4]): 15.1%
- Activity (Raji): 60%

SMILES: CNC(=S)Nc1ccc2c(c1)nc(C)n2Cc1ccccc1
- level, % of control (Human gammaherpesvirus 4 [1]): 58.1%
- level, % of control (Human gammaherpesvirus 4 [2]): 100%
- level, % of control (Human gammaherpesvirus 4 [3]): 80%
- level, % of control (Human gammaherpesvirus 4 [4]): 13.2%
- Activity (Raji): 60%

SMILES: CCNC(=S)Nc1ccc2c(c1)nc(C)n2Cc1ccccc1
- level, % of control (Human gammaherpesvirus 4 [1]): 59.6%
- level, % of control (Human gammaherpesvirus 4 [2]): 100%
- level, % of control (Human gammaherpesvirus 4 [3]): 81.2%
- level, % of control (Human gammaherpesvirus 4 [4]): 14%
- Activity (Raji): 60%

SMILES: Cc1nc2cc(NC(=S)NC(=O)c3ccccc3)ccc2n1Cc1ccccc1
- level, % of control (Human gammaherpesvirus 4 [1]): 60.6%
- level, % of control (Human gammaherpesvirus 4 [2]): 100%
- level, % of control (Human gammaherpesvirus 4 [3]): 82%
- level, % of control (Human gammaherpesvirus 4 [4]): 17.8%
- Activity (Raji): 60%

SMILES: COc1ccc(NC(=S)Nc2ccc3c(c2)nc(C)n3Cc2ccccc2)cc1
- level, % of control (Human gammaherpesvirus 4 [1]): 53.1%
- level, % of control (Human gammaherpesvirus 4 [2]): 100%
- level, % of control (Human gammaherpesvirus 4 [3]): 78.3%
- level, % of control (Human gammaherpesvirus 4 [4]): 13.5%
- Activity (Raji): 60%

SMILES: CCN1C(=O)CS/C1=N/c1ccc2c(c1)nc(C)n2Cc1ccccc1
- level, % of control (Human gammaherpesvirus 4 [1]): 54.2%
- level, % of control (Human gammaherpesvirus 4 [2]): 100%
- level, % of control (Human gammaherpesvirus 4 [3]): 81.1%
- level, % of control (Human gammaherpesvirus 4 [4]): 18.3%
- Activity (Raji): 60%

SMILES: Cc1nc2cc(/N=C\c3c[nH]c4ccccc34)ccc2[nH]1
- level, % of control (Human gammaherpesvirus 4 [1]): 62.1%
- level, % of control (Human gammaherpesvirus 4 [2]): 100%
- level, % of control (Human gammaherpesvirus 4 [3]): 86.1%
- level, % of control (Human gammaherpesvirus 4 [4]): 18.4%
- Activity (Raji): 60%

SMILES: Cc1nc2cc(/N=C\c3cccc4ccccc34)ccc2[nH]1
- level, % of control (Human gammaherpesvirus 4 [1]): 65.8%
- level, % of control (Human gammaherpesvirus 4 [2]): 100%
- level, % of control (Human gammaherpesvirus 4 [3]): 89.6%
- level, % of control (Human gammaherpesvirus 4 [4]): 20.6%
- Activity (Raji): 60%

SMILES: Cc1nc2cc(/N=C3/SCC(=O)N3C(=O)c3ccccc3)ccc2n1Cc1ccccc1
- level, % of control (Human gammaherpesvirus 4 [1]): 52.5%
- level, % of control (Human gammaherpesvirus 4 [2]): 100%
- level, % of control (Human gammaherpesvirus 4 [3]): 82.5%
- level, % of control (Human gammaherpesvirus 4 [4]): 12.3%
- Activity (Raji): 60%

SMILES: COc1ccc(N2C(=O)CS/C2=N/c2ccc3c(c2)nc(C)n3Cc2ccccc2)cc1
- level, % of control (Human gammaherpesvirus 4 [1]): 53%
- level, % of control (Human gammaherpesvirus 4 [2]): 100%
- level, % of control (Human gammaherpesvirus 4 [3]): 78%
- level, % of control (Human gammaherpesvirus 4 [4]): 13.2%
- Activity (Raji): 60%

SMILES: Cc1nc2ccccc2[nH]1
- level, % of control (Human gammaherpesvirus 4 [1]): 63.6%
- level, % of control (Human gammaherpesvirus 4 [2]): 100%
- level, % of control (Human gammaherpesvirus 4 [3]): 88.3%
- level, % of control (Human gammaherpesvirus 4 [4]): 19.6%
- Activity (Raji): 60%

SMILES: Cc1nc2cc([N+](=O)[O-])ccc2[nH]1
- level, % of control (Human gammaherpesvirus 4 [1]): 62.5%
- level, % of control (Human gammaherpesvirus 4 [2]): 100%
- level, % of control (Human gammaherpesvirus 4 [3]): 88%
- level, % of control (Human gammaherpesvirus 4 [4]): 18.4%
- Activity (Raji): 60%

SMILES: Cc1ccc(C2SCC(=O)N2c2ccc3[nH]c(C)nc3c2)cc1 (stereo not given)
- level, % of control (Human gammaherpesvirus 4 [1]): 66.1%
- level, % of control (Human gammaherpesvirus 4 [2]): 100%
- level, % of control (Human gammaherpesvirus 4 [3]): 88.9%
- level, % of control (Human gammaherpesvirus 4 [4]): 23.1%
- Activity (Raji): 60%

SMILES: Cc1nc2cc(/N=C3/SCC(=O)N3C)ccc2n1Cc1ccccc1
- level, % of control (Human gammaherpesvirus 4 [1]): 61.2%
- level, % of control (Human gammaherpesvirus 4 [2]): 100%
- level, % of control (Human gammaherpesvirus 4 [3]): 83.4%
- level, % of control (Human gammaherpesvirus 4 [4]): 20.7%
- Activity (Raji): 60%

SMILES: Cc1nc2cc(N3C(=O)CSC3c3ccc(C)o3)ccc2[nH]1 (stereo not given)
- level, % of control (Human gammaherpesvirus 4 [1]): 65.1%
- level, % of control (Human gammaherpesvirus 4 [2]): 100%
- level, % of control (Human gammaherpesvirus 4 [3]): 87.7%
- level, % of control (Human gammaherpesvirus 4 [4]): 20.9%
- Activity (Raji): 60%

SMILES: Cc1nc2cc(N3C(=O)CSC3c3c[nH]c4ccccc34)ccc2[nH]1 (stereo not given)
- level, % of control (Human gammaherpesvirus 4 [1]): 65.9%
- level, % of control (Human gammaherpesvirus 4 [2]): 100%
- level, % of control (Human gammaherpesvirus 4 [3]): 87.1%
- level, % of control (Human gammaherpesvirus 4 [4]): 21.8%
- Activity (Raji): 60%

SMILES: Cc1nc2cc(/N=C3/SCC(=O)N3c3ccccc3)ccc2n1Cc1ccccc1
- level, % of control (Human gammaherpesvirus 4 [1]): 61%
- level, % of control (Human gammaherpesvirus 4 [2]): 100%
- level, % of control (Human gammaherpesvirus 4 [3]): 82.5%
- level, % of control (Human gammaherpesvirus 4 [4]): 19.4%
- Activity (Raji): 60%

SMILES: Cc1nc2cc(NC(=S)Nc3ccccc3)ccc2n1Cc1ccccc1
- level, % of control (Human gammaherpesvirus 4 [1]): 60.2%
- level, % of control (Human gammaherpesvirus 4 [2]): 100%
- level, % of control (Human gammaherpesvirus 4 [3]): 83.1%
- level, % of control (Human gammaherpesvirus 4 [4]): 15.3%
- Activity (Raji): 60%

SMILES: Cc1ccc(/C=N\c2ccc3[nH]c(C)nc3c2)cc1
- level, % of control (Human gammaherpesvirus 4 [1]): 64.5%
- level, % of control (Human gammaherpesvirus 4 [2]): 100%
- level, % of control (Human gammaherpesvirus 4 [3]): 89.1%
- level, % of control (Human gammaherpesvirus 4 [4]): 19.3%
- Activity (Raji): 60%

SMILES: Cc1nc2cc(/N=C\c3cccs3)ccc2[nH]1
- level, % of control (Human gammaherpesvirus 4 [1]): 65.5%
- level, % of control (Human gammaherpesvirus 4 [2]): 100%
- level, % of control (Human gammaherpesvirus 4 [3]): 89.1%
- level, % of control (Human gammaherpesvirus 4 [4]): 22%
- Activity (Raji): 60%

SMILES: Cc1nc2cc(N)ccc2[nH]1.Cl
- level, % of control (Human gammaherpesvirus 4 [1]): 64.3%
- level, % of control (Human gammaherpesvirus 4 [2]): 100%
- level, % of control (Human gammaherpesvirus 4 [3]): 88.9%
- level, % of control (Human gammaherpesvirus 4 [4]): 20.3%
- Activity (Raji): 60%

SMILES: Cc1nc2cc(N)ccc2n1Cc1ccccc1.Cl
- level, % of control (Human gammaherpesvirus 4 [1]): 62.2%
- level, % of control (Human gammaherpesvirus 4 [2]): 100%
- level, % of control (Human gammaherpesvirus 4 [3]): 86.3%
- level, % of control (Human gammaherpesvirus 4 [4]): 18.5%
- Activity (Raji): 60%
